Results: patent US20090054333A1, “Peptide inhibitors of cyclin-dependent kinase activity and uses thereof” (priority 2006, published 2009)
“Also recorded” adds a separate entry of the source. Values belong to the molecule of their own block, whether it stands above or below them.

Tests used:
NIH/3T3 cells = assay: colony formation assay; type: cell-based; conditions: NIH/3T3 transfected with 5 μg pEF6/V5 construct; blasticidin S selection; colonies counted after eight days
Protocol: Colony formation assay: The effects of the pRb2/p130 spacer domain and 39 aa small peptide overexpression on cellular growth was examined by colony formation assays. Exponentially growing NIH/3T3 cells were seeded in 100-mm dishes at a density of 5×10^5 cells per 100 mm dish the day before transfection. Cells were transfected with 5 μg of pEF6/V5-spacer, pEF6/V5-Spa310 or the control vector pEF6/V5 carrying the brasticidin S-resistant gene (bsr) as a selectable marker gene. For selection, blasticidin S hydrochloride (Funakoshi, Tokyo, Japan) was added to the culture medium 48 h after transfection, at a final concentration of 10 μg/mL. After 6 days, 1×10^3 of blasticidin S-resistant cells in each well were plated in triplicate in 60-mm dishes, in order to evaluate their colony-forming ability. Cells were then incubated at 37° C. for eight days in a selecting medium containing blasticidin S hydrochloride at a final concentration of 10 μg/mL. Colonies, defined as groups of a minimum of 50 cells, were counted after staining with 2% methylene blue in 95% ethanol.
As presented in FIGS. 4a and 4b, the spacer region caused a decrease on the ability of the cells to form colonies of about 50% and the Spa310 of about 60%. […] After six days, an equal number of resistant cells were plated in 60-mm dishes and colony-forming ability was evaluated after eight days of continuous selection. […]

cdk2 = assay: in vitro cdk2 kinase assay with GST-fusion proteins, histone H1 substrate; type: biochemical; parameters: key to Kinase assay (inhibitory effect on cdk2 activity): P=positive; N=negative; conditions: for Kinase assay (inhibitory effect on cdk2 activity): 0.1 μg GST-fusion protein, cdk2 immunoprecipitated from NIH/3T3; for inhibitory effect on cdk2 activity / histone H1 phosphorylation in vitro: GST-fusion protein added to cdk2 immunoprecipitate from NIH/3T3
Protocol: Constructs preparation: A prokaryotic expression vector pGEX-2T (Stratagene Inc., La Jolla Calif.) and polymerase chain reaction (PCR) were used to generate chimeric Glutathione-S-Transferase constructs. The primers used by PCR to amplify the fragments that were subcloned in the pGEX-2T were derived from the 5′ and 3′ ends of different regions of the spacer domain of […]. The mammalian expression vector pEF6/V5-His TOPO (Invitrogen Corp, Carlsbad, Calif.) was used to generate the constructs pEF6/V5-His-spacer and pEF6/V5-His-310 that express the correspondent genes with a C-terminal V5 epitope. The spacer and the 310 fragments were PCR-amplified with the respective primers (Table 1) to generate 3′ends of the cDNAs without stop codons and were subsequently subcloned into pEF6/V5-His TOPO (Invitrogen Corp, Carlsbad, Calif.) according to the manufacturer's instructions to obtain cDNAs coding for C-terminal fusion proteins. All generated constructs were confirmed by automated sequencing. Information regarding the primers is available upon request.
GST Fusion protein preparation: XL1-Blue bacteria carrying the pGEX-2T vectors were grown to mid log phase and then induced to express protein by adding 0.25 mM of isopropyl-1-thio-β-D-galactopyranoside (IPTG, Roche Applied Science, Indianapolis, Ind.). The cultures were shaken for 4 h; bacteria were then pelleted and resuspended in NENT buffer (20 mM Tris pH 8, 100 mM NaCl, 1 mM EDTA, 0.5% NP-40). Cell suspensions were sonicated, pelleted and the supernatant collected. The remaining bacteria were then resuspended in NENT buffer plus 2% of N-Lauryl-Sarcosine, pelleted and the supernatants were collected again. The combined supernatants were incubated with Glutathione agarose (Amersham Biosciences, Piscataway, N.J.) overnight at 4° C. The agarose was then pelleted and washed three times in NENT buffer.
Kinase assays: Cell lysates from NIH/3T3 were prepared by resuspending pelleted cells in 500 μl of lysis buffer (50 mM Tris, 5 mM EDTA, 250 mM NaCl, 50 mM NaF, 0.1% Triton, 0.1 mM Na3VO4, plus protease inhibitors). An equal amount of protein for each fraction (100 μg) was immunoprecipitated with a polyclonal anti-cdk2 antibody (De Luca et al., 1997, J Biol Chem, 272, 20971-4). The complexes were pulled down with protein A-Sepharose and washed three times with lysis buffer and twice with lysis buffer containing 400 mM NaCl. The complexes were equilibrated in kinase assay buffer (20 mM HEPES pH 7.4, 10 mM MgAc, […], 1 mM DTT). In order to detect the in vitro inhibition of cdk2 activity, each sample was incubated with an equal amount (0.1 μg) of each pGEX-2T fusion protein, in a final volume of 20 μl of kinase buffer, using 5 μCi/sample of γ-ATP (Amersham Biosciences, Piscataway, N.J.) and 2 μg of Histone H1 for 30 minutes at 30° C. Kinase assays were repeated at least three times, giving an inter assay standard deviation within 10% after normalization for protein amount. In order to evaluate the in vivo inhibition of cdk2 activity, cdk2 was immunoprecipitated, as described above, from NIH/3T3 cells transiently transfected with 5 μg of pEF6/V5-spacer, pEF6/V5-Spa310 or the vector alone as a control. The immunocomplexes were split in two tubes. A half of each sample was assayed for cdk2 activity in a final volume of 20 μl of kinase buffer with 5 μCi/sample of γ-ATP and 2 μg of Histone H1 for 30 min. at 30° C.; the second one was tested in western blot analysis to confirm that all the samples contained the amount of cdk2 immunoprecipitated. Briefly the samples were separated into 12% SDS polyacrylamide gels (SDS-PAGE), and then transferred into a nitrocellulose membrane (Schleicher & Schuell, Germany). The membrane was blocked with 5% non-fat dry milk in 1×TBST and incubated with the polyclonal anti-cdk2 antibody described above. […]

- Kinase assay (inhibitory effect on cdk2 activity) (cdk2): P
Molecule: Spa310: pRb2/p130 amino acids 641-679 (39 amino acids long), SEQ ID NO:3; LTPRRVTEVRADTGGLGRSITSPTTLYDRYSSPPASTTR (listed as Homo sapiens)
- decrease on the ability of the cells to form colonies (NIH/3T3 cells): about 60%
- inhibitory effect on cdk2 activity / histone H1 phosphorylation in vitro (cdk2): able to maintain the specific inhibitory ability; also recorded: strongly and similarly inhibited cdk2 activity

- Kinase assay (inhibitory effect on cdk2 activity) (cdk2): P
B1: Spacer: full-length pRb2/p130 spacer domain, amino acids 616-828 (SEQ ID NO:20) (protein, listed as Homo sapiens)
chain: VPTCEEVMPPQNLERADEICIAGSPLTPRRVTEVRADTGGLGRSITSPTTLYDRYSSPPASTTRRRLFVENDSPSDGGTPGRMPPQPLVNAVPVQNVSGETVSVTPVPGQTLVTMATATVTANNGQTVTIPVQGIANENGGITFFPVQVNVGGQAQAVTGSIQPLSAQALAGSLSSQQVTGTTLQVPGQVAIQQISPGGQQQKQGQSVTSSSN
- decrease on the ability of the cells to form colonies (NIH/3T3 cells): about 50%
- inhibitory effect on cdk2 activity / histone H1 phosphorylation in vitro (cdk2): strongly and similarly inhibited cdk2 activity
